{
  "source": "patent US10149470B2",
  "about": "“Methods and compositions for vein harvest and autografting” (Vanderbilt University, priority 2009, dated 2018)",
  "type_in_all_cases": "cell-based",
  "key": {"[1]": {"tested_on": "porcine saphenous veins", "conditions": "pig, 15 min, 50 %", "method": "Freshly isolated porcine saphenous veins were used to test the effect of different marking methods. The veins were collected and placed in cold transplant harvest buffer [100 mM potassium lactobionate, 25 mM KH2PO4, 5 mM MgSO4, 30 mM raffinose, 5 mM adenosine, 3 mM glutathione, 1 mM allopurinol, 50 g/L hydroxyethyl starch, pH 7.4]. The vessels were stored in transplant harvest buffer at 4° C. and tested within 24 hours of harvest and. To test the viability, rings 1.0 mm in width were cut from segments of saphenous vein and dissected free of fat and connective tissue. Saphenous vein rings were untreated (Control; n=6), marked with the surgical skin marker (n=3), or 50% isopropyl alcohol (the solvent used in the surgical marker; n=3) and incubated for 15 min at room temperature. The rings were then equilibrated in a muscle bath, contracted with KCl, and force was measured and converted to stress (10^5 N/m^2). […] (FIG. 7)."}, "[2]": {"tested_on": "human saphenous vein", "conditions": "15 min, pH 7.4", "method": "De-identified discarded segments of human saphenous vein were collected (n=66), after informed consent approved by the Institutional Review Board of the Vanderbilt University (Nashville, Tenn.), from patients undergoing coronary artery bypass or peripheral vascular bypass surgery. The veins were stored in a saline solution until the end of the surgical procedure at which time they were placed in cold transplant harvest buffer (100 mM potassium lactobionate, 25 mM KH2PO4, 5 mM MgSO4, 30 mM raffinose, 5 mM adenosine, 3 mM glutathione, 1 mM allopurinol, 50 g/L hydroxyethyl starch, pH 7.4) and stored at 4° C. The vessels were tested within 24 hours of harvest. The presense of blue markings were assessed for each HSV. Rings 1.0 mm in width were cut from segments of saphenous vein dissected free of fat and connective tissue, stripped of the endothelium and were suspended in a muscle bath containing a bicarbonate buffer (120 mM NaCl, 4.7 mM KCl, 1.0 mM MgSO4, 1.0 mM NaH2PO4, 10 mM glucose, 1.5 mM CaCl2, and 25 mM […], pH 7.4), gassed with 95% O2/5% CO2 at 37° C. The rings were manually stretched to 4 g of tension, and was maintained at a resting tension of 1 g was obtained and equilibrated for ˜2 hr. […] To determine viability, the rings were contracted with 110 mM KCl (with equimolar replacement of NaCl in bicarbonate buffer), and the force generated was measured. […]"}, "[3]": {"tested_on": "porcine saphenous vein", "experiment": "KCl-induced contraction of porcine saphenous vein after stretch injury, with or without dye", "conditions": "50 μM dye for 30 min on rings from stretched segments; FIG. 10", "method": "Freshly isolated porcine saphenous vein was collected in cold transplant harvest buffer (100 mM potassium lactobionate, 25 mM KH2PO4, 5 mM MgSO4, 30 mM raffinose, 5 mM adenosine, 3 mM glutathione, 1 mM allopurinol, 50 g/L hydroxyethyl starch, pH 7.4). The vessels were tested within 24 hours of harvest and storage in transplant harvest buffer at 4° C. The vein was dissected free of fat and connective tissue and cut into 2 cm long segments. The segments were stretched to twice their resting length (stretched; n=7) or not manipulated (control; n=12). After stretching, the segments from both groups were further divided. A solution of erioglaucine (FCF, 2.6 mM, in 5% propylene glycol and water) or vehicle was then applied with a cotton swab in a longitudinal line to the untreated (FCF; n=8) or the stretched (Stretched+FCF; n=3) vein segments. The segments were incubated at room temperature for 15 min in Plasmalyte and then cut into rings. The rings were suspended in a muscle bath containing a bicarbonate buffer (120 mM NaCl, 4.7 mM KCl, 1.0 mM MgSO4, 1.0 mM NaH2PO4, 10 mM glucose, 1.5 mM CaCl2, and 25 mM […], pH 7.4), bubbled with 95% O2/5% CO2 at 37° C. The rings were manually stretched to 4 g of tension, and maintained at a resting tension of 1 g and equilibrated for ˜2 hr.\nRings from stretched segments were either incubated with 50 μM Allura Red (+Red) or 50 μM of erioglaucine (+FCF) for 30 min. The rings were then allowed to equilibrate in the bicarbonate buffer for before contracting with 110 mM KCl. Force generated was converted to stress (10^5 N/m^2). Data represent relative contractile response to Control rings which was set as 100%."}, "[4]": {"tested_on": "porcine saphenous vein", "experiment": "Intimal thickening of distended porcine saphenous vein rings in 14 day organ culture", "conditions": "50 μM dye, 14 days culture, distended to >300 mm Hg, compared to Distended-Control; FIG. 14", "method": "Fresh porcine saphenous vein was harvested by a no touch method under sterile conditions and stored in cold transplant harvest buffer (100 mM potassium lactobionate, 25 mM KH2PO4, 5 mM MgSO4, 30 mM Raffinose, 5 mM Adenosine, 3 mM Glutathione, 1 mM Allopurinol, 50 g/L Hydroxyethyl starch, pH 7.4). The vessels were used within 24 hr of harvest. The veins were divided into three segments that were left untreated (Unmanipulated, n=7), distended (Distended, n=8) to >300 mm Hg, or distended in the presence of the pressure relief valve (Pop Off, n=7). Each segment was then cut into ˜1 mm rings and one ring from each condition was immediately fixed in formalin (Pre-culture). The other rings were cultured in RPMI medium supplemented with 1% L-glutamine, penicillin/streptomycin and 30% Fetal bovine serum at 5% CO2 and 37° C. in the absence (Control) or presence of either 50 μM erioglaucine (FCF), 50 μM brilliant blue G (BBG) or 50 μM Allura Red (Red) for 14 days. After 14 days, the rings were fixed in formalin, sectioned at 5 μm and stained using Verhoff Van Gieson stain. Light micrograph of the rings was captured using a Axiovert 200 and intimal thickness was measured using AxioVision."}, "[5]": {"tested_on": "human saphenous vein", "experiment": "Papaverine effect on tension and on norepinephrine contraction of human saphenous vein rings", "quoted_text": "De-identified discarded segments of human saphenous vein (n=6) were collected, after informed consent approved by the Institutional Review Board of the Vanderbilt University (Nashville, Tenn.), from patients undergoing coronary artery bypass or peripheral vascular bypass surgery. The veins were stored in a saline solution until the end of the surgical procedure at which time they were placed in cold transplant harvest buffer (100 mM potassium lactobionate, 25 mM KH2PO4, 5 mM MgSO4, 30 mM raffinose, 5 mM adenosine, 3 mM glutathione, 1 mM allopurinol, 50 g/L hydroxyethyl starch, pH 7.4). The vessels were tested within 24 hrs of harvest and storage in transplant harvest buffer at 4° C. Veins were cleaned off fat and adventitial tissues and the endothelium was removed. […] The rings were contracted with 110 mM KCl (with equimolar replacement of NaCl in bicarbonate buffer), and the force generated was measured and converted to stress [Newtons (N)/m^2]==force (g)×0.0987/area, where area is equal to the wet weight [mg/length (mm at maximal length)] divided by 1.055. […] Rings were treated with 0.5 μM norepinephrine (NE), 1 mM papaverine (Pap), or 1 mM papaverine for 10 min followed by 0.5 μM NE and force generated was measured and converted to stress. […]"}, "[6]": {"tested_on": "porcine coronary artery", "experiment": "Papaverine effect on tension and on histamine/KCl contraction of porcine coronary artery rings", "method": "Porcine coronary arteries were freshly isolated from euthanized pigs and placed directly into cold transplant harvest buffer (100 mM potassium lactobionate, 25 mM KH2PO4, 5 mM MgSO4, 30 mM Raffinose, 5 mM Adenosine, 3 mM Glutathione, 1 mM Allopurinol, 50 g/L Hydroxyethyl starch, pH 7.4). Coronary arteries were dissected free of fat and adventitial tissues and the endothelium was removed. Transverse rings (1.0 mm thickness) were cut and suspended in muscle bath, via silk 3-0 linked to force transducers (Kent Scientific, CT) interfaced with a Data Translation A-D board (Data Translation, MA). Data was acquired with the Power Lab software program. Porcine coronary artery rings were suspended in a muscle bath and equilibrated in Krebs Ringer bicarbonate buffer for 2 h. The rings were stretched and the length progressively adjusted until maximal tension was obtained. The rings were contracted with 110 mM KCl (with equimolar replacement of NaCl in bicarbonate buffer), and the force generated was measured and converted to stress [Newtons (N)/m^2]=force (g)×0.0987/area, where area is equal to the wet weight [mg/length (mm at maximal length)] divided by 1.055. Rings were washed and equilibrated for another 30 mins. Rings were treated with 5 μM histamine, 110 mM KCl, 1 mM papaverine (PAP), 1 mM papaverine for 10 min followed by 5 μM histamine or 1 mM papaverine for 10 min followed by 110 mM KCl and force generated was measured- and converted to stress. Representative force tracings of rings treated with 5 μM histamine (Hist), 110 mM KCl (KCl), 1 mM papaverine (PAP), 1 mM papaverine for 10 min followed by 5 μM histamine (Pap+Hist) or 1 mM papaverine for 10 min followed by 110 mM KCl (Pap+KCl) were depicted in FIG. 18A. Decrease in stress was converted to a percentage of the maximal initial KCl contraction which was set as 100%."}},
  "data": [
    {"smiles": "CC(C)O", "note": "[50% isopropyl alcohol, isopropyl alcohol]", "values": [
      {"measurement": "average stress, contraction with KCl", "setting": "[1]", "value": "5 ± 5", "unit": "N/m^2"},
      {"measurement": "average stress, contraction with 110 mM KCl", "setting": "[2]", "value": "0.005±0.003 10^5 N/m^2"}
    ]},
    {"smiles": "COc1cc(S(=O)(=O)[O-])c(C)cc1N=Nc1c(O)ccc2cc(S(=O)(=O)[O-])ccc12.[Na+].[Na+]", "note": "[Allura Red]", "values": [
      {"measurement": "restoration of functional viability (contractile response to KCl) after stretch injury", "setting": "[3]", "value": "did not restore functional viability"},
      {"measurement": "distension induced increases in intimal thickening", "setting": "[4]", "value": "but not allura red inhibited distension induced increases in intimal thickening"}
    ]},
    {"smiles": "CN(C)c1ccc2nc3ccc(=[N+](C)C)cc-3sc2c1", "note": "[methylene blue]", "values": [
      {"measurement": "average stress, contraction with 110 mM KCl", "setting": "[2]", "value": "0.014±0.01 10^5 N/m^2"}
    ]},
    {"smiles": "COc1ccc(Cc2nccc3cc(OC)c(OC)cc23)cc1OC", "note": "[papaverine]", "values": [
      {"measurement": "norepinephrine induced contraction after papaverine, percentage of the maximal initial KCl contraction", "setting": "[5]; 1 mM papaverine 10 min then 0.5 μM NE, NE alone 89.935±18.344", "value": "−3.210±5.119", "unit": "%"},
      {"measurement": "norepinephrine induced contractions (in words)", "setting": "[5]; preincubation with papaverine, FIGS. 19A-B", "value": "inhibits norepinephrine induced contractions"},
      {"measurement": "change of basal tension, percentage of the maximal initial KCl contraction", "setting": "[6]; 1 mM papaverine", "value": "−15.0±3.135", "unit": "%"},
      {"measurement": "histamine induced contraction after papaverine, percentage of the maximal initial KCl contraction", "setting": "[6]; 1 mM papaverine 10 min then 5 μM histamine, histamine alone 98.613±11.049", "value": "−12.0±4.163", "unit": "%"},
      {"measurement": "KCl induced contraction after papaverine, percentage of the maximal initial KCl contraction", "setting": "[6]; 1 mM papaverine 10 min then 110 mM KCl, KCl alone 103.33±2.404", "value": "−20.0±10.00", "unit": "%"},
      {"measurement": "histamine and KCl induced contractions (in words)", "setting": "[6]; preincubation with papaverine, FIGS. 18A-B", "value": "inhibits histamine and KCl induced contractions"}
    ]}
  ]
}
